PubChem BioAssay AID248 (DTP/NCI, 2004)
Values joined by “and” are separate entries in the source; they are usually repeats but may differ in a detail not shown here. Equal values may be shown once. Inconclusive results and toxic doses are left out. Rule as the data show it: active = T/C of 150% or more; inactive = T/C below 125%.

Test system: L1210 leukemia ip in BDF1 mice, survival T/C
Test: NCI In Vivo Anticancer Drug Screen. Data for tumor model L1210 Leukemia (intraperitoneal) in B6D2F1 (BDF1) mice
Details: endpoint: mean survival time, higher = longer survival
Procedure, shortened: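 Transplantable tumor model; survival measured in treated vs vehicle control mice. Value = treated/control.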

[1] = dose: 100.0 mg/kg/injection, schedule: Q04DX003 (ip), vehicle: saline with Tween-80
[2] = dose: 200.0 mg/kg/injection, schedule: Q04DX003 (ip), vehicle: saline with Tween-80
[3] = dose: 50.0 mg/kg/injection, schedule: Q01DX001 (ip), vehicle: carboxymethylcellulose (CMC)
[4] = dose: 100.0 mg/kg/injection, schedule: Q01DX001 (ip), vehicle: carboxymethylcellulose (CMC)
[5] = dose: 400.0 mg/kg/injection, schedule: Q01DX001 (ip), vehicle: carboxymethylcellulose (CMC)
[6] = dose: 200.0 mg/kg/injection, schedule: Q01DX001 (ip), vehicle: carboxymethylcellulose (CMC)
[7] = dose: 100.0 mg/kg/injection, schedule: Q01DX009 (ip), vehicle: saline with Tween-80
[8] = dose: 200.0 mg/kg/injection, schedule: Q01DX009 (ip), vehicle: saline with Tween-80
[9] = dose: 400.0 mg/kg/injection, schedule: Q04DX003 (ip), vehicle: saline with Tween-80
[10] = dose: 100.0 mg/kg/injection, schedule: Q04DX003 (ip), vehicle: Klucel (hydroxypropylcellulose) (HPC)
[11] = dose: 200.0 mg/kg/injection, schedule: Q04DX003 (ip), vehicle: Klucel (hydroxypropylcellulose) (HPC)
[12] = dose: 400.0 mg/kg/injection, schedule: Q04DX003 (ip), vehicle: Klucel (hydroxypropylcellulose) (HPC)
[13] = dose: 100.0 mg/kg/injection, schedule: Q01DX001 (ip), vehicle: saline
[14] = dose: 200.0 mg/kg/injection, schedule: Q01DX001 (ip), vehicle: saline
[15] = dose: 400.0 mg/kg/injection, schedule: Q01DX001 (ip), vehicle: saline

Measured: T/C

CCCCCCCCCCCCCCCCCC(=O)[O][Hg][c]1ccccc1
inactive: dose: 5.0 mg/kg/injection, schedule: Q01DX001 (ip), vehicle: carboxymethylcellulose (CMC) 94 % of control | dose: 8.0 mg/kg/injection, schedule: Q01DX015 (ip), vehicle: carboxymethylcellulose (CMC) 96 % of control | dose: 10.0 mg/kg/injection, schedule: Q01DX001 (ip), vehicle: carboxymethylcellulose (CMC) 94 % of control | dose: 10.0 mg/kg/injection, schedule: Q01DX009 (ip), vehicle: saline with Tween-80 94 % of control | dose: 16.0 mg/kg/injection, schedule: Q01DX015 (ip), vehicle: carboxymethylcellulose (CMC) 92 % of control | dose: 20.0 mg/kg/injection, schedule: Q01DX001 (ip), vehicle: carboxymethylcellulose (CMC) 92 % of control | dose: 20.0 mg/kg/injection, schedule: Q01DX009 (ip), vehicle: saline with Tween-80 110 % of control | dose: 20.0 mg/kg/injection, schedule: Q04DX003 (ip), vehicle: saline 102 % of control | dose: 32.0 mg/kg/injection, schedule: Q01DX015 (ip), vehicle: carboxymethylcellulose (CMC) 94 % of control | dose: 40.0 mg/kg/injection, schedule: Q01DX001 (ip), vehicle: carboxymethylcellulose (CMC) 100 % of control | dose: 40.0 mg/kg/injection, schedule: Q04DX003 (ip), vehicle: saline 98 % of control

CNC/C(C)=C/Br
inactive: dose: 100.0 mg/kg/injection, schedule: Q04DX003 (ip), vehicle: acetone 101 % of control | [1] 103 % of control | dose: 200.0 mg/kg/injection, schedule: Q04DX003 (ip), vehicle: acetone 92 % of control | [2] 97 % of control

CCCCCCS(=O)(=O)c1n[nH]c(=O)[nH]c1=O
inactive: dose: 100.0 mg/kg/injection, schedule: Q01DX001 (ip), vehicle: other 98 % of control | dose: 200.0 mg/kg/injection, schedule: Q01DX001 (ip), vehicle: other 95 % of control | dose: 400.0 mg/kg/injection, schedule: Q01DX001 (ip), vehicle: other 101 % of control

CC(=O)NC(CC(C)C)C(=O)O (centres undefined)
inactive: dose: 25.0 mg/kg/injection, schedule: Q04DX002 (ip), vehicle: saline 96 % of control | dose: 50.0 mg/kg/injection, schedule: Q04DX002 (ip), vehicle: saline 101 % of control | dose: 100.0 mg/kg/injection, schedule: Q04DX002 (ip), vehicle: saline 101 % of control | dose: 200.0 mg/kg/injection, schedule: Q04DX002 (ip), vehicle: saline 90 % of control | dose: 400.0 mg/kg/injection, schedule: Q04DX002 (ip), vehicle: saline 108 % of control

CCC(/C=N\NC(=O)CCCC(=O)N/N=C/C(CC)CC)CC
inactive: [3] 90 % of control | [4] 90 % of control | [5] 90 % of control

Cc1nc(N)nc(N)c1-c1ccc([N+](=O)[O-])cc1
inactive: [4] 95 % of control | [6] 95 % of control

COc1cccc(CC(C)(C)CCO)c1
inactive: dose: 50.0 mg/kg/injection, schedule: Q01DX009 (ip), vehicle: saline with Tween-80 102 % of control | [7] 100 % of control | [8] 96 % of control

CC(=O)CCCN1C(=O)c2ccccc2C1=O
inactive: [7] 106 % of control | [1] 101 % of control | [8] 96 % of control | [2] 91 % of control | dose: 400.0 mg/kg/injection, schedule: Q01DX009 (ip), vehicle: saline with Tween-80 93 % of control | [9] 102 % of control

S=C(N/N=C/c1ccc2c(c1)CCC2)Nc1ccccc1
inactive: [10] 103 % of control | [11] 92 % of control | [12] 100 % of control

Cc1cccc(/C=N\OCc2ccccc2)n1
inactive: [1] 98 % of control | [2] 98 % of control | [9] 98 % of control

O=c1[nH]cnc2[nH]cc([N+](=O)[O-])c12
inactive: [3] 101 % of control | [4] 89 % of control | [6] 98 % of control and 87 % of control | [5] 93 % of control and 97 % of control

CCOC(=O)C1(C(=O)OCC)CCC(O)N1C(=O)Cc1ccccc1[N+](=O)[O-] (centres undefined)
inactive: [10] 100 % of control | [11] 103 % of control | [12] 99 % of control

O=C(O)C1C(c2ccccc2)=C(c2ccccc2)C(c2ccccc2)=C(c2ccccc2)C1C(=O)O (centres undefined)
inactive: [3] 89 % of control | [4] 92 % of control

CONP(=O)(NOC)c1ccccc1
inactive: [13] 103 % of control | [14] 95 % of control | [15] 90 % of control

O=C(O)CCCc1nccc2ccccc12
inactive: dose: 75.0 mg/kg/injection, schedule: Q01DX001 (ip), vehicle: saline 102 % of control | dose: 150.0 mg/kg/injection, schedule: Q01DX001 (ip), vehicle: saline 92 % of control

C=CCOCC(O)COP(=O)(O)O (centres undefined) (tested in a mixture with another compound)
inactive: dose: 50.0 mg/kg/injection, schedule: Q01DX001 (ip), vehicle: saline 111 % of control and 107 % of control and 97 % of control | [13] 100 % of control and 107 % of control and 103 % of control | [14] 100 % of control and 97 % of control and 103 % of control | [15] 94 % of control and 103 % of control

Cc1ccc(Sc2cccc3c2C(=O)c2c(Sc4ccc(C)cc4)cccc2C3=O)cc1
inactive: [1] 86 % of control | [2] 91 % of control | [9] 88 % of control

CCCCCCCCC[n+]1cccc(C(=O)c2ccccc2)c1
inactive: dose: 9.38 mg/kg/injection, schedule: Q01DX001 (ip), vehicle: saline 98 % of control | dose: 18.75 mg/kg/injection, schedule: Q01DX001 (ip), vehicle: saline 100 % of control | dose: 37.5 mg/kg/injection, schedule: Q01DX001 (ip), vehicle: saline 105 % of control

Cc1ccc(C)c(NC(=O)c2ccccc2C(=O)O)c1
inactive: dose: 100.0 mg/kg/injection, schedule: Q01DX009 (ip), vehicle: Klucel (hydroxypropylcellulose) (HPC) 102 % of control | [10] 101 % of control | dose: 200.0 mg/kg/injection, schedule: Q01DX009 (ip), vehicle: Klucel (hydroxypropylcellulose) (HPC) 104 % of control | [11] 102 % of control | dose: 400.0 mg/kg/injection, schedule: Q01DX009 (ip), vehicle: Klucel (hydroxypropylcellulose) (HPC) 93 % of control | [12] 98 % of control

ClCc1ccc(-c2ccc(CCl)cc2)cc1
inactive: dose: 30.0 mg/kg/injection, schedule: Q01DX015 (ip), vehicle: carboxymethylcellulose (CMC) 116 % of control | dose: 60.0 mg/kg/injection, schedule: Q01DX015 (ip), vehicle: carboxymethylcellulose (CMC) 106 % of control | [4] 100 % of control | dose: 120.0 mg/kg/injection, schedule: Q01DX015 (ip), vehicle: carboxymethylcellulose (CMC) 102 % of control | [6] 104 % of control | dose: 240.0 mg/kg/injection, schedule: Q01DX015 (ip), vehicle: carboxymethylcellulose (CMC) 98 % of control | dose: 300.0 mg/kg/injection, schedule: Q01DX015 (ip), vehicle: carboxymethylcellulose (CMC) 108 % of control | [5] 105 % of control

COc1cc(C(=O)Nc2ccccc2SC)cc(OC)c1OC
inactive: dose: 100.0 mg/kg/injection, schedule: Q04DX002 (ip), vehicle: Klucel (hydroxypropylcellulose) (HPC) 100 % of control | dose: 200.0 mg/kg/injection, schedule: Q04DX002 (ip), vehicle: Klucel (hydroxypropylcellulose) (HPC) 97 % of control | dose: 400.0 mg/kg/injection, schedule: Q04DX002 (ip), vehicle: Klucel (hydroxypropylcellulose) (HPC) 90 % of control
